Here are results for 14 compounds from patent US20180221352A1, “3-(1H-PYRROLO[2,3-C]PYRIDIN-2-YL)-1H-PYRAZOLO[3,4-B]PYRIDINES AND THERAPEUTIC USES THEREOF” (Samumed, LLC, priority 2015, published 2018).

What all share (type): cell-based
Assay [1] relates to Wnt activity (Sp5-Luc reporter, SW480 colon carcinoma cells). The assay is described as follows: Wnt activity screening assay, Sp5-Luc reporter gene in SW480 cells. The following applies: Homo sapiens; for inhibition at 10 µM: SW480, read-out: percent inhibition at 10 μM; for EC50: Sp5-Luc reporter, SW480 cells, overnight incubation. The source says:
The screening assay for Wnt activity is described as follows. Reporter cell lines can be generated by stably transducing cancer cell lines (e.g., colon cancer) or primary cells (e.g., IEC-6 intestinal cells) with a lentiviral construct that includes a Wnt-responsive promoter driving expression of the firefly luciferase gene.
SW480 colon carcinoma cells were transduced with a lentiviral vector expressing luciferase with a human Sp5 promoter consisting of a sequence of eight TCF/LEF binding sites. SW480 cells stably expressing the Sp5-Luc reporter gene and a hygromycin resistance gene were selected by treatment with 150 μg/mL of hygromycin for 7 days. These stably transduced SW480 cells were expanded in cell culture and used for all further screening activities. […] For Sp5-Luc reporter gene assays, the cells were plated at 4,000 cells/well in 384-well plates with medium containing 1% fetal bovine serum and incubated overnight at 37° C. and 5% CO2. Following incubation, 20 μl of BrightGlo luminescence reagent (Promega) was added to each well of the 384-well assay plates. The plates were placed on an orbital shaker for 2 min and then luminescence was quantified using the Envision (Perkin Elmer) plate reader. Readings were normalized to DMSO only treated cells, and normalized activities were utilized for EC50 calculations using the dose-response log (inhibitor) vs. response−variable slope (four parameters) nonlinear regression feature available in GraphPad Prism 5.0 (or Dotmatics).
(In general: Reporter assays use an easily measured gene product as a stand-in for the process of interest.)

In a further assay the test system is SW480 colon cancer cells. The experiment in a line: Cell viability assay (CellTiter-Blue). The following applies: Homo sapiens; for EC50: 96 h, SW480 cell viability, four days; for inhibition at 10 µM: SW480, 96 h, read-out: percent inhibition at 10 μM. As to the method:
Representative compounds were screened using the following assay procedure to assess the effect on cell viability as described below.
Approximately 2×10^3 SW480 colon cancer cells were seeded into each well and allowed to incubate in the presence or absence of compound for four days at 37° C./5% CO2. Eight replicates of DMSO-treated cells served as controls and cells treated with compound were performed in duplicate.
After incubation, 20 μL of CellTiter-Blue (Promega) was added to each well allowed to incubate for approximately 3 hours. This reagent was a buffered solution which contains resazurin, metabolically active cells were able to reduce rezarurin (blue) into resorufin (pink) which was highly fluorescent. This measured fluorescence was used as a readout for cell viability.
For orientation: The colour change of resazurin is a common sign of viable cells or microbes.

Assay [2] relates to primary human fibroblasts derived from IPF patients (LL29 cells). The assay is described as follows: Inhibition of fibrotic process, αSMA staining in TGF-β1 treated fibroblasts. As to conditions: Fibroblast; for EC50: 96 h, LL29 cells, TGF-β1 20 ng/mL, 4 days, % αSMA positive cells; for inhibition at 10 µM: read-out: percent inhibition at 10 μM. As to the method: Representative compounds were screened using primary human fibroblasts (derived from IPF patients) treated with TGF-β1 to determine their ability to inhibit the fibrotic process.
LL29 cells are plated at 1,500 cells/well in 80 μL/well F12 medium supplemented with 1% Fetal Bovine Serum. […] Wells treated with TGF-31 and containing DMSO were used as controls. […] Following incubation for 4 days, SYTOX green nucleic acid stain (Life Technologies [Thermo Fisher Scientific]) was added to the wells at a final concentration of 1 μM and incubated at room temperature for 30 min.

The next assay has as its system IL-6. The experiment in a line: IL-6 inhibition in LPS-stimulated THP-1 cells (HTRF). As to conditions: Homo sapiens; for inhibition at 10 µM: THP-1, read-out: percent inhibition at 10 μM; for EC50: THP-1 cells, LPS 500 ng/mL, 22 hours, IL6 HTRF. As to the method:
THP-1 cells were cultured in basal media with 1% FBS for 24 hours before the start of the assay. […] THP-1 cells were plated at 5000 cells/well in the 384-well plates and incubated at 37° C. for 2 h. 500 ng/mL of LPS was added after 2 hours and cells were incubated for another 22 hours at 37° C. Plates were spun in a centrifuge for 1 minute at […] and a mixture of anti-IL6 XL665, and anti-IL6 Cryptate diluted in reconstitution buffer (Cisbio Inc.) was added to each well. Following incubation for 3 hrs at room temperature, Homogeneous Time-Resolved Fluorescence (HTRF) was measured using the Envision (Perkin Elmer) at 665 nm and […]. The ratio of fluorescence at 665 nm to 620 nm was used as a readout for IL6 quantification. All samples were processed in duplicate. Readings were normalized to DMSO treated cells and normalized activities were utilized for EC50 calculations using the dose-response log (inhibitor) vs. response−variable slope (four parameters) nonlinear regression feature available in GraphPad Prism 5.0 (or Dotmatics).
For orientation: In TR-FRET formats the signal depends on donor and acceptor labels being close together.

For orientation: inhibition means the change of the read-out against control, counted positive when it falls. As usually defined, the EC50 is the concentration giving half of the maximal effect. A lower EC50 goes with an effect from little substance. For the compound `O=C(Nc1cncc(-c2cnc3[nH]nc(-c4cc5c(-c6cccc(F)c6)cncc5[nH]4)c3c2)c1)c1ccccc1` [Compound 11, N-(5-(3-(4-(3-Fluorophenyl)-1H-pyrrolo[2,3-c]pyridin-2-yl)-1H-pyrazolo [3,4-b]pyridin-5-yl)pyridin-3-yl)benzamide], the inhibition at 10 µM in assay [1] turned out to be 22.5%; in the assay on SW480 colon cancer cells, 16.8%; with IL-6, 20.2%. Further, the EC50 was greater than 10000 nM in assay [1], greater than 10000 nM in the assay on SW480 colon cancer cells, 7570 nM in assay [2] and greater than 10000 nM in the assay on IL-6.

Regarding `Fc1cccc(-c2cncc3[nH]c(-c4n[nH]c5ncc(-c6ccncc6)cc45)cc23)c1` [Compound 18, 3-(4-(3-Fluorophenyl)-1H-pyrrolo[2,3-c]pyridin-2-yl)-5-(pyridin-4-yl)-1H-pyrazolo[3,4-b]pyridine], the EC50 is 4150 nM in assay [1], 1900 nM in the assay with SW480 colon cancer cells, 1230 nM in assay [2] and greater than 10000 nM in the assay on IL-6. Further, in the assay on IL-6, the inhibition at 10 µM was 20.3%.

Take `O=C(Nc1cncc(-c2cnc3[nH]nc(-c4cc5c(-c6cccc(F)c6)cncc5[nH]4)c3c2)c1)C1CCC1` [Compound 21, N-(5-(3-(4-(3-Fluorophenyl)-1H-pyrrolo[2,3-c]pyridin-2-yl)-1H-pyrazolo [3,4-b]pyridin-5-yl)pyridin-3-yl)cyclobutanecarboxamide]: the EC50 amounted to 532 nM in assay [1], 586 nM with SW480 colon cancer cells, 310 nM in assay [2] and 324 nM in the assay with IL-6.

As for `CC(C)CC(=O)Nc1cncc(-c2cnc3[nH]nc(-c4cc5c(-c6ccc(F)cc6)cncc5[nH]4)c3c2)c1` [Compound 30, N-(5-(3-(4-(4-Fluorophenyl)-1H-pyrrolo[2,3-c]pyridin-2-yl)-1H-pyrazolo [3,4-b]pyridin-5-yl)pyridin-3-yl)-3-methylbutanamide], the EC50 is 1630 nM in assay [1], 1620 nM with SW480 colon cancer cells, 1140 nM in assay [2] and greater than 10000 nM with IL-6. The inhibition at 10 µM in the assay with IL-6 is 24.6%.

On to `CC(C)(C)C(=O)Nc1cncc(-c2cnc3[nH]nc(-c4cc5c(-c6ccc(F)cc6)cncc5[nH]4)c3c2)c1` [Compound 36, N-(5-(3-(4-(4-Fluorophenyl)-1H-pyrrolo[2,3-c]pyridin-2-yl)-1H-pyrazolo [3,4-b]pyridin-5-yl)pyridin-3-yl)pivalamide], for which the inhibition at 10 µM in assay [1] was 18.8%. Also, the EC50 was greater than 10000 nM in assay [1], 2080 nM in the assay on SW480 colon cancer cells, 2550 nM in assay [2] and 127 nM in the assay on IL-6.

Consider `O=C(Nc1cncc(-c2cnc3[nH]nc(-c4cc5c(-c6ccc(F)cc6)cncc5[nH]4)c3c2)c1)C1CCCCC1` [Compound 51, N-(5-(3-(4-(4-Fluorophenyl)-1H-pyrrolo[2,3-c]pyridin-2-yl)-1H-pyrazolo [3,4-b]pyridin-5-yl)pyridin-3-yl)cyclohexanecarboxamide], for which the EC50 in assay [1] was 2940 nM; with SW480 colon cancer cells it was 1440 nM; in assay [2], 1180 nM; with IL-6 it was 3470 nM.

With `Fc1ccc(-c2cncc3[nH]c(-c4n[nH]c5ncc(-c6ccccn6)cc45)cc23)cc1` [Compound 56, 3-(4-(4-Fluorophenyl)-1H-pyrrolo[2,3-c]pyridin-2-yl)-5-(pyridin-2-yl)-1H-pyrazolo[3,4-b]pyridine], the inhibition at 10 µM in assay [1] worked out at 15.5%; in assay [2], 38.2%; in the assay on IL-6, 25%. Moreover, the EC50 was greater than 10000 nM in assay [1], 5740 nM in the assay with SW480 colon cancer cells, greater than 10000 nM in assay [2] and greater than 10000 nM in the assay with IL-6.

With `CC(C)(C)CC(=O)Nc1cncc(-c2cnc3[nH]nc(-c4cc5c(-c6ccccc6F)cncc5[nH]4)c3c2)c1` [Compound 72, N-(5-(3-(4-(2-Fluorophenyl)-1H-pyrrolo[2,3-c]pyridin-2-yl)-1H-pyrazolo [3,4-b]pyridin-5-yl)pyridin-3-yl)-3,3-dimethylbutanamide], the EC50 in assay [1] was 1010 nM; in the assay with SW480 colon cancer cells, 747 nM; in assay [2] it was 384 nM; in the assay with IL-6 it was 3120 nM.

Regarding `O=C(Nc1cncc(-c2cnc3[nH]nc(-c4cc5c(-c6ccccc6F)cncc5[nH]4)c3c2)c1)C1CCCC1` [Compound 78, N-(5-(3-(4-(2-Fluorophenyl)-1H-pyrrolo[2,3-c]pyridin-2-yl)-1H-pyrazolo [3,4-b]pyridin-5-yl)pyridin-3-yl)cyclopentanecarboxamide], the 50% effective concentration (EC50) stood at 840 nM in assay [1], 638 nM in the assay on SW480 colon cancer cells, 408 nM in assay [2] and 1290 nM in the assay on IL-6.

Turning to `CCC(=O)Nc1cncc(-c2cnc3[nH]nc(-c4cc5c(-c6cccnc6)cncc5[nH]4)c3c2)c1` [Compound 85, N-(5-(3-(4-(Pyridin-3-yl)-1H-pyrrolo[2,3-c]pyridin-2-yl)-1H-pyrazolo[3,4-b]pyridin-5-yl)pyridin-3-yl)propionamide], the inhibition at 10 µM in assay [1] worked out at 9.3%; in the assay with SW480 colon cancer cells it was 10%; in assay [2], 44.2%; with IL-6, 34.1%. Further, the EC50 (in assay [1]; in the assay on SW480 colon cancer cells; in assay [2]; in the assay with IL-6) was greater than 10000 nM in each case.

As for `c1ccc(-c2cnc3[nH]nc(-c4cc5c(-c6cccnc6)cncc5[nH]4)c3c2)nc1` [Compound 112, 5-(Pyridin-2-yl)-3-(4-(pyridin-3-yl)-1H-pyrrolo[2,3-c]pyridin-2-yl)-1H-pyrazolo[3,4-b]pyridine], the inhibition at 10 µM stood at 44.2% in assay [1] and 16.9% in the assay with IL-6. In addition, the EC50 in assay [1] is greater than 10000 nM; with SW480 colon cancer cells, 3680 nM; in assay [2] it was 2190 nM; in the assay with IL-6 it was greater than 10000 nM.

In the case of `CC(C)Nc1cncc(-c2cnc3[nH]nc(-c4cc5c(-c6ccncc6)cncc5[nH]4)c3c2)c1` [Compound 124, N-Isopropyl-5-(3-(4-(pyridin-4-yl)-1H-pyrrolo[2,3-c]pyridin-2-yl)-1H-pyrazolo[3,4-b]pyridin-5-yl)pyridin-3-amine], the values for the inhibition at 10 µM (in assay [1]; with SW480 colon cancer cells) were 15.5% and 3.2%, respectively. Besides, the EC50 in assay [1] was greater than 10000 nM; with SW480 colon cancer cells it was greater than 10000 nM; in assay [2], 2400 nM; in the assay on IL-6 it was 68 nM.

As for `O=C(Nc1cncc(-c2cnc3[nH]nc(-c4cc5c(-c6ccncc6)cncc5[nH]4)c3c2)c1)C1CCCC1` [Compound 134, N-(5-(3-(4-(Pyridin-4-yl)-1H-pyrrolo[2,3-c]pyridin-2-yl)-1H-pyrazolo[3,4-b]pyridin-5-yl)pyridin-3-yl)cyclopentanecarboxamide], the inhibition at 10 µM in assay [1] was determined as 0%; in the assay with SW480 colon cancer cells, 10.6%; in assay [2], 27.9%; in the assay on IL-6 it was 30%. Further, the EC50 (in assay [1]; in the assay on SW480 colon cancer cells; in assay [2]; with IL-6) was greater than 10000 nM throughout.

Take `CCNCc1cncc(-c2cnc3[nH]nc(-c4cc5c(N6CCCCC6)cncc5[nH]4)c3c2)c1` [Compound 174, N-((5-(3-(4-(Piperidin-1-yl)-1H-pyrrolo[2,3-c]pyridin-2-yl)-1H-pyrazolo [3,4-b]pyridin-5-yl)pyridin-3-yl)methyl)ethanamine]: the half-maximal effective concentration (EC50) was found to be 9460 nM in assay [1], 4140 nM in the assay on SW480 colon cancer cells, 3610 nM in assay [2] and 3400 nM with IL-6.
